# Columns and labels:
# Type in all cases: ADME, organism-based
# [1] = Tmax in plasma of male C57BL6 mouse at 3 mg/kg, po
# [2] = Cmax in plasma of male C57BL6 mouse at 3 mg/kg, po
# [3] = Half life in plasma of male C57BL6 mouse at 3 mg/kg, po
# [4] = AUClast in plasma of male C57BL6 mouse at 3 mg/kg, po
# [5] = AUC (infinity) in plasma of male C57BL6 mouse at 3 mg/kg, po
# [6] = Tmax in brain of male C57BL6 mouse at 3 mg/kg, po
# [7] = Cmax in brain of male C57BL6 mouse at 3 mg/kg, po
# [8] = Half life in brain of male C57BL6 mouse at 3 mg/kg, po
# [9] = AUClast in brain of male C57BL6 mouse at 3 mg/kg, po
# [10] = AUC (infinity) in brain of male C57BL6 mouse at 3 mg/kg, po
Compound,Tmax [1],Cmax [2],half-life [3],AUC(0-t) [4],AUC(0-inf) [5],Tmax [6],Cmax [7],half-life [8],AUC(0-t) [9],AUC(0-inf) [10]
CCCOc1cc(CCN)c(OC)cc1Br,0.5 h,130 ng/mL,1.44 h,284 ng·h/mL,291 ng·h/mL,1 h,1850 ng/mL,1.29 h,6480 ng·h/mL,6680 ng·h/mL
CN(C)CCc1c[nH]c2cccc(O)c12 [PSILOCIN],–,878 ng/mL,1.7 h,1060 ng·h/mL,1140 ng·h/mL,0.5 h,1340 ng/mL,4.47 h,3600 ng·h/mL,4420 ng·h/mL

# — ChEMBL document CHEMBL6134877, “Innovative Approaches in Psychedelics, AI, and Communication: A Multi-Domain Perspective” (ACS Med Chem Lett, 2025)
